In patent US11275071B2, “Sensor dyes for real-time sensing of metal ions in aqueous environments” (UWM Research Foundation, Inc., priority 2015, dated 2022):
Entries after “also recorded” stand apart in the source; their conditions may differ. Read-outs that look alike come from different tables or passages of the source.

Columns and labels:
[1] = Response of QAR and PAR to metal ions at pH 7 (absorbance spectrum, colour); type: binding
Experimental: (§1) The response of QAR to different metal ions was measured to determine its selectivity and compared to another sensor (PAR), which has a similar structure. Samples were prepared with different metal standards at pH 7, and the absorbance spectrum of each sample was recorded (FIG. 6). Also, photographs of the samples are provided below to allow for a visual comparison (FIG. 7).
(§2) The spectra of QAR were compared to the spectrum of the free dyes, and the general response of QAR at pH 7 can be described as follows: […]

[2] = Response of QAR and PAR to metal ions at pH 7, overall comparison; type: binding
Experimental: as §1, §2

[3] = Protonation states of free QAR, pKA by absorption and ReactLab Equilibria (Example 29); type: physicochemical; details: free dye
Experimental: QAR has three protonation sites: The heterocyclic nitrogen in the quinoline moiety, and the para-hydroxyl group and the ortho-hydroxyl group in the resorcinol ring. The ortho-hydroxyl group is involved in binding with the metal.
The acid dissociation constants (pKA) and spectral profiles were determined for QAR. […] The data was analyzed using ReactLab Equilibria (JPlus Consulting Pty Ltd, Australia) to determine the resulting pKA values. QAR has three protonation sites, so four species were used for the analysis model. The pKA values were assigned using values from well-known molecules with a similar structure.
Error analysis was performed using the measurement uncertainties (pH meter and probe, temperature, etc.) and the conventional rules of error propagation. […] The total uncertainty was estimated from the error analysis (TABLE 5).

[4] = Formation and dissociation constants of QAR, titration with metal ion standard at pH 8.8; type: binding; details: for KF / KD: 1:2 complex; for KD: computed from formation constant; for log KF: M^2+ + 2HQAR^− → M(QAR)2^2− + 2H^+; for Kd: read-out: square root over (KD)
Experimental: The formation constants (KF) were determined for QAR and different metals. The relative binding affinities characterized the selectivity of the sensor, i.e. the sensor's preference for binding one metal over another. Also, the corresponding dissociation constants (KD) were computed from the formation constants. This metric yielded the lower performance limit of the sensor that is thermodynamically possible (for a given set of conditions), and it can provide the practical operating range of the sensor.
The absorbance spectra were recorded using a Perkin-Elmer Lambda 650 spectrophotometer while a QAR solution was titrated with a metal ion standard. Scout titrations were performed to obtain an estimate range for the KD. Then, the titration was performed with a sufficiently low initial dye concentration (approximately equal to the KD) for proper determination. Also, measurements were made using 10 cm longpath cuvettes. The increased pathlength compensated for the reduced dye concentration so measurements were made within the instrumental limitations (i.e. absorbance values greater than 0.05 absorbance units).
The dye solution was pH-buffered at such that only one protonated form of the free dye and complex is present. […] At pH 8.8, the following expression describes the metal-dye complex formation where HQAR^− predominates as the free dye and M(QAR)2^2 predominates as the metal complex, and minimal formation of metal hydroxides is expected. M^2++2HQAR^−→M(QAR)2^2−+2H^+
The data was analyzed in ReactLab Equilibria to determine the formation constant using the above model, and initial concentrations of HQAR and the respective metal. This software performs regression with the entire spectrum to calculate the formation constants specified in the model. Analysis was performed several times with different initial “guesses” for parameter values to ensure the algorithm yielded reproducible results.
The corresponding K values were calculated and are shown in the table below where the standard error from regression is given as the uncertainty values. The accuracy of the values is limited for cobalt and copper because the absorbance changes were too steep to properly capture the hyperbolic nature of the curve. And, the experimental conditions could not be adjusted to yield the same level of instrumental sensitivity and accuracy as the other metals. However, a relative comparison of the binding affinities is valid.

[5] = Protonation states of metal-QAR complexes; type: physicochemical; details: M(QAR)2H2 decomposition under acidic conditions, midpoint of species distribution curve
Experimental: (§3) The dissociation constant under acidic conditions and the pKA for the para-hydroxy group on the metal-QAR complexes was determined. A set of samples containing QAR and a single metal standard, were prepared in a pH buffer containing 2 mM Triton X-100 surfactant. […] The absorption spectrum of each sample was recorded with the Perkin-Elmer Lambda 650 spectrophotometer.
(§4) Analysis was performed in ReactLab Equilibria. The protonation of the para-hydroxy groups was modelled using the first reaction. Here, the pH micro-constants (stepwise protonation of each dye molecule in the complex) could not be resolved, so the two para-hydroxy groups in the complex were treated as both protonated or both deprotonated in the model. The decomposition of the complex under acidic conditions was modelled using the second reaction. M(QAR)2^2−+2H^+→M(QAR)2H2 M(QAR)2H2+2H^+→[…]+2H3QAR^+
The total uncertainty was estimated from the measurements involved in the experiment using rules of conventional error propagation (TABLE 7).

[6] = Decomposition of metal-QAR complexes under acidic conditions, overall; type: physicochemical
Experimental: as §3, §4
Decomposition of the metal-QAR complexes occurs below pH 3. The dissociation constant is different for each metal. For example, copper has the highest resistance and zinc has the lowest resistance to decomplexation under acidic conditions. Also, this trend [Cu(II)>Co(II)>Ni(II)>Zn(II)] matches the trend in the binding affinities, and the two effects may be related to the specific interactions that occur in the binding of each metal. […]

[7] = accuracy limited, with Co(II) ion
[8] = accuracy limited, with Cu(II) ion

Oc1ccc(N=Nc2cccc3cccnc23)c(O)c1 [QAR, 4-(quinolin-8-yldiazenyl)benzene-1,3-diol]
response to Al(III) (spectrum compared to free dye, colour of complex) [1]: Weakly Sensitive
response to Ca(II) (spectrum compared to free dye, colour of complex) [1]: Insensitive; also recorded: did not undergo a spectral change
response to Cd(II) (spectrum compared to free dye, colour of complex) [1]: Weakly Sensitive
response to Co(II) (spectrum compared to free dye, colour of complex) [1]: Strongly Sensitive; also recorded: magenta complex
response to Cr(III) (spectrum compared to free dye, colour of complex) [1]: Insensitive
response to Cu(II) (spectrum compared to free dye, colour of complex) [1]: Strongly Sensitive; also recorded: orange complex
response to Fe(III) (spectrum compared to free dye, colour of complex) [1]: Severe aggregation; also recorded: does not appreciably complex; also recorded: Aggregation occurs
response to Hg(II) (spectrum compared to free dye, colour of complex) [1]: transparent complex
response to K(I) (spectrum compared to free dye, colour of complex) [1]: Insensitive; also recorded: did not undergo a spectral change
response to Mg(II) (spectrum compared to free dye, colour of complex) [1]: Insensitive; also recorded: did not undergo a spectral change
response to Mn(II) (spectrum compared to free dye, colour of complex) [1]: Weakly Sensitive; also recorded: does not appreciably complex
response to Na(I) (spectrum compared to free dye, colour of complex) [1]: Insensitive; also recorded: did not undergo a spectral change
response to Ni(II) (spectrum compared to free dye, colour of complex) [1]: Strongly Sensitive; also recorded: orange complex
response to Pb(II) (spectrum compared to free dye, colour of complex) [1]: Insensitive; also recorded: does not appreciably complex
response to Sn(II) (spectrum compared to free dye, colour of complex) [1]: Insensitive; also recorded: does not appreciably complex
response to Zn(II) (spectrum compared to free dye, colour of complex) [1]: Strongly Sensitive; also recorded: orange complex
binding selectivity compared with PAR [2]: higher binding selectivity
spectral sensitivity compared with PAR [2]: higher spectral sensitivity
pKa ([3]; site Quinoline N): 2.42
pKa ([3]; site o-OH): 13
pKA ([3]; site p-OH): 6.539
pKa ([3]; site p-OH): 6.5
KF [4, 7]: (1.86 ± 0.03) × 10^13 M^−2
KF [4, 8]: (1.85 ± 0.40) × 10^16 M^−2
KD [4, 7]: (5.30 ± 0.10) × 10^−14 M^2
KD [4, 8]: (5.40 ± 1.15) × 10^−17 M^2
KD ([4]; with Hg(II) ion): (1.03 ± 0.04) × 10^−13 M^2
KD ([4]; with Ni(II) ion): (2.66 ± 0.06) × 10^−13 M^2
KD ([4]; with Zn(II) ion): (3.24 ± 0.03) × 10^−13 M^2
KF ([4]; with Hg(II) ion): (9.68 ± 0.45) × 10^12 M^−2
KF ([4]; with Ni(II) ion): (3.76 ± 0.09) × 10^12 M^−2
KF ([4]; with Zn(II) ion): (3.09 ± 0.05) × 10^12 M^−2
log KF [4, 8]: 16.268 M^−2
log KF ([4]; with Hg(II) ion): 12.986 M^−2
log KF ([4]; with Ni(II) ion): 12.575 M^−2
log KF ([4]; with Zn(II) ion): 12.490 M^−2
Kd [4, 7]: 0.23 µM
Kd [4, 8]: 0.00735 µM
Kd ([4]; with Hg(II) ion): 0.321 µM
Kd ([4]; with Ni(II) ion): 0.516 µM
Kd ([4]; with Zn(II) ion): 0.569 µM
Acidic Dissociation ([5]; Co(II)-QAR complex): 1.593
Acidic Dissociation ([5]; Cu(II)-QAR complex): 0.635
Acidic Dissociation ([5]; Ni(II)-QAR complex): 2.455
Acidic Dissociation ([5]; Zn(II)-QAR complex): 2.558
trend of resistance to decomplexation under acidic conditions [6]: Cu(II)>Co(II)>Ni(II)>Zn(II)

Oc1ccc(N=Nc2ccccn2)c(O)c1 [PAR, 4-(2-pyridylazo)resorcinol, reference compound]
response to Ca(II) (spectrum compared to free dye, colour of complex) [1]: did not undergo a spectral change
response to Cd(II) (spectrum compared to free dye, colour of complex) [1]: orange complexes
response to Co(II) (spectrum compared to free dye, colour of complex) [1]: magenta complex
response to Cu(II) (spectrum compared to free dye, colour of complex) [1]: magenta complex
response to Fe(III) (spectrum compared to free dye, colour of complex) [1]: magenta complex; also recorded: Aggregation occurs
response to Hg(II) (spectrum compared to free dye, colour of complex) [1]: brown, globular suspension
response to K(I) (spectrum compared to free dye, colour of complex) [1]: did not undergo a spectral change
response to Mg(II) (spectrum compared to free dye, colour of complex) [1]: did not undergo a spectral change
response to Na(I) (spectrum compared to free dye, colour of complex) [1]: did not undergo a spectral change
response to Ni(II) (spectrum compared to free dye, colour of complex) [1]: orange complexes
response to Pb(II) (spectrum compared to free dye, colour of complex) [1]: magenta complex
response to Zn(II) (spectrum compared to free dye, colour of complex) [1]: orange complexes
